Measured values as given in patent US9834542B2, “LXR modulators” (BRISTOL-MYERS SQUIBB COMPANY, priority 2013, dated 2017).

Biological target: T1, LXRβ (Homo sapiens, UniProt P55055)
T1 construct: Co-transfection expression plasmids, comprising full-length LXRα (pCMX-h LXRα[…] or LXRβ (pCMX-hLXRβ)); expressed in transfected cells; host or cells: CV-1 African Green Monkey Kidney Cells
T1 sequence (P55055 1-460): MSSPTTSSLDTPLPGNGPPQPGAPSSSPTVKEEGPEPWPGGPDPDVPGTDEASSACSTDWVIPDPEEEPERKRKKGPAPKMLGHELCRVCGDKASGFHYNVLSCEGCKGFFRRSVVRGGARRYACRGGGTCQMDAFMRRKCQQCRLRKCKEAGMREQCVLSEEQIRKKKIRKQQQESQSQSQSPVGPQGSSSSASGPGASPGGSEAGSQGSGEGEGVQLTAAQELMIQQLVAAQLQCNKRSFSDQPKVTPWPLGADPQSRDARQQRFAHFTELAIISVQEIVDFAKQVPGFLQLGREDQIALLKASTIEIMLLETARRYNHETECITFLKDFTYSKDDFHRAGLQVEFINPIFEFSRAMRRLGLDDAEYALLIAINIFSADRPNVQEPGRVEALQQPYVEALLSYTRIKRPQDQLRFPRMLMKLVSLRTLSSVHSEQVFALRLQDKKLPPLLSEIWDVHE
T1 sequence (P19793 1-462 partner): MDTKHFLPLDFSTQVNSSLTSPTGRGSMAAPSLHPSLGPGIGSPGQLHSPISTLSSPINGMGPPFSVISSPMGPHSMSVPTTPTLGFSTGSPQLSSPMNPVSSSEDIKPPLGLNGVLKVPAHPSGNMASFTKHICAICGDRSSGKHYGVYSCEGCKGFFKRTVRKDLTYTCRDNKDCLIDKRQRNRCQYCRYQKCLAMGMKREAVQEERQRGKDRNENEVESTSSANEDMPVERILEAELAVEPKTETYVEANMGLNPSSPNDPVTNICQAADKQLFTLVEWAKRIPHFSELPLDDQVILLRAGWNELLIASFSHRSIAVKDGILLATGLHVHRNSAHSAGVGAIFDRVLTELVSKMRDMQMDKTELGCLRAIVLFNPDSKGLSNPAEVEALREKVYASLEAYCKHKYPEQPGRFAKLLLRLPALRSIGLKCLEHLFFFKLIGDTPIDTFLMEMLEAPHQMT
Assay: Co-transfection assay (LXRE luciferase reporter), LXRβ
Assay type: cell-based
Set-up: % Efficacy: concentration or dose not given beside the values
Details: for EC50: CV-1 cells transfected with pCMX-hLXRβ and LXREx1-Tk-Luciferase, 20 hours incubation; for Emax: read-out: % Efficacy
Outline: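 Luciferase output from an LXRE-Tk reporter measured after 20 h, 37 °C compound exposure of transiently transfected CV-1 cells expressing human LXRβ with endogenous RXR. EC50 fitted from 11-point half-log dose responses (mean of ≥2 runs); % efficacy versus maximal response of the reference agonist.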

[1] = LXRβ co-transfection, relative to high control 1-(2,4-difluorobenzyl)-2-oxo-6-(4-phenoxyphenyl)-4-(trifluoromethyl)-1,2-dihydropyridine-3-carbonitrile

Row | SMILES | EC50 [nM] | Emax [1] [%] | % Efficacy [1] [%]
1 | Cc1nc(-c2cc(-c3cc(F)c(CO)c(S(C)(=O)=O)c3)ccc2-n2cc(C(F)(F)F)nc2C)c(-c2ccc(C(F)(F)F)nc2)o1 [Example 568, (3-fluoro-4′-(2-methyl-4-(trifluoromethyl)-1H-imidazol-1-yl)-3′-(2-methyl-5-(6-(trifluoromethyl)pyridin-3-yl)oxazol-4-yl)-5-(methylsulfonyl)-[1,1′-biphenyl]-4-yl)methanol] | 552 | 68 | –
2 | Cc1nc(-c2cc(-c3cc(F)c(CO)c(S(C)(=O)=O)c3)ccc2-n2cc(C(C)O)nc2C)c(-c2ccc3c(c2)OC(F)(F)O3)o1 (single isomer, unassigned) [Example 516, 1-(1-(3-(5-(2,2-difluorobenzo[d][1,3]dioxol-5-yl)-2-methyloxazol-4-yl)-3′-fluoro-4′-(hydroxymethyl)-5′-(methylsulfonyl)-[1,1′-biphenyl]-4-yl)-2-methyl-1H-imidazol-4-yl)ethanol] | 270 | – | 41
3 | COCS(=O)(=O)c1cccc(-c2ccc(-n3cc(C(F)(F)F)nc3C)c(-n3nncc3-c3ccc(OC(F)(F)F)cc3)c2)c1 [Example 238, 1-(3′-((methoxymethyl)sulfonyl)-4-(2-methyl-4-(trifluoromethyl)-1H-imidazol-1-yl)-[1,1′-biphenyl]-3-yl)-5-(4-(trifluoromethoxy)phenyl)-1H-1,2,3-triazole] | 489 | 90 | –
4 | Cc1nc(-c2cc(-c3cc(F)c(CO)c(S(C)(=O)=O)c3)ccc2-n2cc(C(F)(F)F)nc2C)c(-c2ccc(C)c(F)c2)o1 [Example 503, (3-fluoro-3′-(5-(3-fluoro-4-methylphenyl)-2-methyloxazol-4-yl)-4′-(2-methyl-4-(trifluoromethyl)-1H-imidazol-1-yl)-5-(methylsulfonyl)biphenyl-4-yl)methanol] | 45 | 71 | –
5 | Cc1nc(-c2cc(-c3cc(F)c(CO)c(S(C)(=O)=O)c3)ccc2-n2cc(C(F)(F)F)nc2C)c(-c2cc(F)c(OC(F)F)c(F)c2)o1 [Example 457, (3′-(5-(4-(difluoromethoxy)-3,5-difluorophenyl)-2-methyloxazol-4-yl)-3-fluoro-4′-(2-methyl-4-(trifluoromethyl)-1H-imidazol-1-yl)-5-(methylsulfonyl)biphenyl-4-yl)methanol] | 58 | 76 | –
6 | Cc1nc(C(F)(F)F)cn1-c1ccc(-c2cccc(S(C)(=O)=O)c2)cc1-n1nncc1-c1ccc(Cl)cc1 [Example 66, 5-(4-chlorophenyl)-1-{3′-(methylsulfonyl)-4-[2-methyl-4-(trifluoromethyl)-1H-imidazol-1-yl]biphenyl-3-yl}-1H-1,2,3-triazole] | 306 | 98 | –
7 | Cc1nc(C(C)(F)F)cn1-c1ccc(-c2cccc(S(C)(=O)=O)c2)cc1-n1nncc1-c1ccc(Cl)cc1Cl [Example 180, 5-(2,4-dichlorophenyl)-1-{4-[4-(1,1-difluoroethyl)-2-methyl-1H-imidazol-1-yl]-3′-(methylsulfonyl)biphenyl-3-yl}-1H-1,2,3-triazole] | 606 | 48 | –
8 | Cc1nc(-c2cc(-c3cccc(S(C)(=O)=O)c3)ccc2-n2cc(C(F)(F)F)nc2C)c(-c2cccnc2C)o1 [Example 394, 2-methyl-4-(4-(2-methyl-4-(trifluoromethyl)-1H-imidazol-1-yl)-3′-(methylsulfonyl)biphenyl-3-yl)-5-(2-methylpyridin-3-yl)oxazole] | 615 | 60 | –
9 | Cc1nc(-c2ccccc2OC(F)(F)F)c(-c2cc(-c3cccc(S(C)(=O)=O)c3)ccc2-n2cc(C(F)(F)F)nc2C)o1 [Example 631, 2-methyl-5-(4-(2-methyl-4-(trifluoromethyl)-1H-imidazol-1-yl)-3′-(methylsulfonyl)-[1,1′-biphenyl]-3-yl)-4-(2-(trifluoromethoxy)phenyl)oxazole] | 216 | 43 | –
10 | Cc1nc(C(F)(F)F)cn1-c1ccc(-c2cc(F)c(CO)c(S(C)(=O)=O)c2)cc1-n1nncc1-c1ccc(Cl)cc1Cl [Example 67, {3′-[5-(2,4-dichlorophenyl)-1H-1,2,3-triazol-1-yl]-3-fluoro-5-(methylsulfonyl)-4′-[2-methyl-4-(trifluoromcehyl)-1H-imidazol-1-yl]biphenyl-4-yl}methanol] | 127 | 81 | –
11 | COc1cnc(-c2oc(C)nc2-c2cc(-c3cccc(S(C)(=O)=O)c3)ccc2-n2cc(C(F)(F)F)nc2C)cn1 [Example 412, 5-(5-methoxypyrazin-2-yl)-2-methyl-4-(4-(2-methyl-4-(trifluoromethyl)-1H-imidazol-1-yl)-3′-(methylsulfonyl)biphenyl-3-yl)oxazole] | 518 | 72 | –
12 | Cc1nc(C(F)(F)F)cn1-c1ccc(-c2cccc(S(C)(=O)=O)c2)cc1-c1ocnc1-c1ccc(Cl)cc1 [Example 360, 4-(4-chlorophenyl)-5-{3′-(methylsulfonyl)-4-[2-methyl-4-(trifluoromethyl)-1H-imidazol-1-yl]biphenyl-3-yl}-1,3-oxazole] | 170 | 93 | –
13 | Cc1ccc(-c2cnnn2-c2cc(-c3cccc(S(C)(=O)=O)c3)ccc2-n2cc(C(F)F)nc2C)cc1 [Example 168, 1-{4-[4-(difluoromethyl)-2-methyl-1H-imidazol-1-yl]-3′-(methylsulfonyl)biphenyl-3-yl}-5-(4-methylphenyl)-1H-1,2,3-triazole] | 945 | 81 | –
14 | Cc1nc(-c2cc(-c3cc(F)c(CO)c(S(C)(=O)=O)c3)ccc2-n2cc(C(F)(F)F)nc2C)c(-c2cccnc2Cl)o1 [Example 549, (3′-(5-(2-chloropyridin-3-yl)-2-methyloxazol-4-yl)-3-fluoro-4′-(2-methyl-4-(trifluoromethyl)-1H-imidazol-1-yl)-5-(methylsulfonyl)-[1,1′-biphenyl]-4-yl)methanol] | 483 | 87 | –
15 | Cc1nc(C(F)(F)F)c(Cl)n1-c1ccc(-c2cccc(S(C)(=O)=O)c2)cc1-n1nncc1-c1ccc(Cl)cc1Cl [Example 59, 1-{4-[5-chloro-2-methyl-4-(trifluoromethyl)-1H-imidazol-1-yl]-3′-(methylsulfonyl)biphenyl-3-yl}-5-(2,4-dichlorophenyl)-1H-1,2,3-triazole] | 218 | 95 | –
16 | Cc1nc(C(F)(F)F)cn1-c1ccc(-c2cccc(S(C)(=O)=O)c2)cc1-c1nc(CN(C)C)oc1-c1ccc(OC(F)(F)F)cc1 [Example 538, N,N-dimethyl-1-(4-(4-(2-methyl-4-(trifluoromethyl)-1H-imidazol-1-yl)-3′-(methylsulfonyl)-[1,1′-biphenyl]-3-yl)-5-(4-(trifluoromethoxy)phenyl)oxazol-2-yl)methanamine] | 205 | 79 | –
17 | Cc1nc(C(F)(F)F)cn1-c1cc(F)c(-c2cccc(S(C)(=O)=O)c2)cc1-n1nncc1-c1ccc(OC(F)(F)F)cc1 [Example 99, 1-{6-fluoro-3′-(methylsulfonyl)-4-[2-methyl-4-(trifluoromethyl)-1H-imidazol-1-yl]biphenyl-3-yl}-5-{4-[(trifluoromethyl)oxy]phenyl}-1H-1,2,3-triazole] | 1010 | 86 | –
